Where two headings read alike, the source gives them in different places. One block for each molecule: values may come before it.
How the values were obtained:
Cell viability XTT assay [1] = type: cell-based; conditions: human, HeLa cells, read-out: Viability of treated cells relative to untreated control
Cell viability XTT assay [2] = type: cell-based; conditions: human, SH-SY5Y cells, read-out: Viability of treated cells relative to untreated control
DYRK2 = target: T1, DYRK2 (Homo sapiens, UniProt Q92630); assay: Kinase-GLO luminescent kinase assay; type: biochemical; conditions: 1 μM compound; means of at least 3 measurements
T1 construct: purchased ProQinase (Freiburg, Germany)
T1 sequence (Q92630 1-601): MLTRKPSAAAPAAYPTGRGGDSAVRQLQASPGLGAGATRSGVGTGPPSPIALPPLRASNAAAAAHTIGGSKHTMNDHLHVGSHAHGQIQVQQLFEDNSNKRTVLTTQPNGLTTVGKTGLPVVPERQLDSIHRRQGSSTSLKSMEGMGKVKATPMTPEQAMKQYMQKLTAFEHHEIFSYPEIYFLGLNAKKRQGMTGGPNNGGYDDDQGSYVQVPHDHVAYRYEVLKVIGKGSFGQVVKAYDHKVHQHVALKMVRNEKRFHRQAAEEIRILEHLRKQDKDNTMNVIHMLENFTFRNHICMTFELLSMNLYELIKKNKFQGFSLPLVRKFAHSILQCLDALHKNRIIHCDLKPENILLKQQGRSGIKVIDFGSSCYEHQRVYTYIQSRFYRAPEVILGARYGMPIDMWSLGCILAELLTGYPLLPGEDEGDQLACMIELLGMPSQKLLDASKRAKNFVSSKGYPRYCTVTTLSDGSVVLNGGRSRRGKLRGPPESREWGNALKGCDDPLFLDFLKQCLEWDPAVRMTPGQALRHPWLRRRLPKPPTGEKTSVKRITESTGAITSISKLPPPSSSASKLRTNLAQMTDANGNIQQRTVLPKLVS
Protocol: (§1) Bacterial expression plasmids for GST-DYRK1A-ΔC and GST-DYRK2 have been described earlier. […] Expression in logarithmically growing E. coli culture was performed for 3 h at 37°C (GST-DYRK1A-ΔC and GST-DYRK2), 3 h at 26°C (GST-HIPK2cat), over night at 28°C (GST-CLK1cat) or over night at room temperature (GST-DYRK1Bcat).
(§2) Compounds were screened for inhibitory effects against GST-DYRK1A-ΔC, GST-DYRK1Bcat, GST-DYRK2, GST-CLK1cat or GST-HIPK2cat using the Kinase-GLO Luminescent Kinase Assay from Promega. Assays were performed in a total volume of 10 μL in kinase-buffer (25 mM Hepes pH 7.4, 0.5 mM DTT, 5 mM MgCl2, 5 μM ATP) with appropriate peptide substrates (20 μM DYRKtide for the DYRKs and 100 μM DYRKtide for HIPK2, […]; or 100 μM RS domain-derived peptide for CLK1, […]). Assays were started with this amount of a kinase preparation that consumed approximately 90% of the ATP in the assay (linear range of the kinase titration curve). The reactions were run at room temperature for 30 min before 10 μL Kinase-GLO reagent was added. After incubation at room temperature for additional 10 min, luminescence was recorded for 1 s.

HIPK2 [3] = target: T2, HIPK2 (Homo sapiens, UniProt Q9H2X6); assay: Kinase-GLO luminescent kinase assay; type: biochemical; parameters: made in house; host or cells: E. coli; conditions: 10 μM compound; means of at least 3 measurements
Protocol: as §1, §2
Target sequence in this assay (Q9H2X6 180-533): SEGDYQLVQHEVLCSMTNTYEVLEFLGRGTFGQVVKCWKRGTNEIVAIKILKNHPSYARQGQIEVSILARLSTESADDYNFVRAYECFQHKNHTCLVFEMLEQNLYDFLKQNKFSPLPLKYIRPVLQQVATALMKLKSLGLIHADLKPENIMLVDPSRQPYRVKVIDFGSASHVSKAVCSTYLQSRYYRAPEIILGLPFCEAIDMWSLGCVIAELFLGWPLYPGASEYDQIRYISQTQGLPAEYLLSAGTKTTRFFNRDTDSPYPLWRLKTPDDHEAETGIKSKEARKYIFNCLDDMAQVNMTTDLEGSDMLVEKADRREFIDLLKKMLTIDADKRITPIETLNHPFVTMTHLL

DYRK1B = DYRK1B (Homo sapiens, UniProt Q9Y463); assay: Kinase-GLO luminescent kinase assay; type: biochemical; parameters: made in house; host or cells: E. coli; conditions: 1 μM compound; means of at least 3 measurements
Protocol: as §1, §2

CLK1 = CLK1 (Homo sapiens, UniProt P49759); assay: Kinase-GLO luminescent kinase assay; type: biochemical; parameters: made in house; host or cells: E. coli; conditions: 1 μM compound; means of at least 3 measurements
Protocol: as §1, §2

Cell viability XTT assay [4] = type: cell-based; conditions: rat, PC12 cells, read-out: Viability of treated cells relative to untreated control
DYRK1A [5] = target: T3, DYRK1A (Homo sapiens, UniProt Q13627); assay: Kinase-GLO luminescent kinase assay; type: biochemical; conditions: 1 μM compound; means of at least 3 measurements
T3 construct: purchased ProQinase (Freiburg, Germany)
Protocol: as §1, §2

HeLa cells = assay: Cell viability XTT assay; type: cell-based; conditions: 3 days
SH-SY5Y cells = assay: Cell viability XTT assay; type: cell-based; conditions: 3 days
PC12 cells = assay: Cell viability XTT assay; type: cell-based; conditions: 3 days
PIM2 = PIM2 (Homo sapiens, UniProt Q9P1W9); parameters: purchased ProQinase (Freiburg, Germany); conditions: 10 μM; cited from earlier work
HIPK2 [6] = target: T2, HIPK2; parameters: purchased ProQinase (Freiburg, Germany); conditions: 10 μM; cited from earlier work
PIM1 = PIM1 (Homo sapiens, UniProt P11309); parameters: purchased ProQinase (Freiburg, Germany); conditions: 10 μM; cited from earlier work
HIPK4 = target: T4, HIPK4 (Homo sapiens, UniProt Q8NE63); parameters: purchased ProQinase (Freiburg, Germany); conditions: 10 μM; cited from earlier work
T4 sequence (Q8NE63 1-616): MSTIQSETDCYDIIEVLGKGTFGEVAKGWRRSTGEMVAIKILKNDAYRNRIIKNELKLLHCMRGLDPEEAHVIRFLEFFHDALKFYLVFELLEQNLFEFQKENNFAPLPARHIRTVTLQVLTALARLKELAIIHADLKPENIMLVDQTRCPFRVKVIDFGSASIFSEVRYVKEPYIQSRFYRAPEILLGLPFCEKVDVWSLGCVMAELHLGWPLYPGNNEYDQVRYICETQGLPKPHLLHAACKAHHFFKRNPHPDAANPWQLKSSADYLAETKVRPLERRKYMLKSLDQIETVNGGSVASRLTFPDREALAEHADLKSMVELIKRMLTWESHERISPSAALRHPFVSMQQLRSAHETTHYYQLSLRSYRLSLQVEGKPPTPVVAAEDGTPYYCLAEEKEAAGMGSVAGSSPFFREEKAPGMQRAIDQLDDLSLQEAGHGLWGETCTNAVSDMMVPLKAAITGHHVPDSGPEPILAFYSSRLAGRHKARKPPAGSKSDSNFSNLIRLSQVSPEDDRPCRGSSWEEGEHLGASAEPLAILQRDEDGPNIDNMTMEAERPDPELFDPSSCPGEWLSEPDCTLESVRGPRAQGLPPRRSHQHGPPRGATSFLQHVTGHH

IRAK1 = IRAK1 (Homo sapiens, UniProt P51617); parameters: purchased ProQinase (Freiburg, Germany); conditions: 10 μM; cited from earlier work
DYRK1A [7] = conditions: 10 μM; cited from earlier work
PIM3 = PIM3 (Homo sapiens, UniProt Q86V86); parameters: purchased ProQinase (Freiburg, Germany); conditions: 10 μM; cited from earlier work
HIPK1 = HIPK1 (Homo sapiens, UniProt Q86Z02); parameters: purchased ProQinase (Freiburg, Germany); conditions: 10 μM; cited from earlier work
HIPK3 = HIPK3 (Homo sapiens, UniProt Q9H422); parameters: purchased ProQinase (Freiburg, Germany); conditions: 10 μM; cited from earlier work
HIPK3, sequence (Q9H422 whole entry): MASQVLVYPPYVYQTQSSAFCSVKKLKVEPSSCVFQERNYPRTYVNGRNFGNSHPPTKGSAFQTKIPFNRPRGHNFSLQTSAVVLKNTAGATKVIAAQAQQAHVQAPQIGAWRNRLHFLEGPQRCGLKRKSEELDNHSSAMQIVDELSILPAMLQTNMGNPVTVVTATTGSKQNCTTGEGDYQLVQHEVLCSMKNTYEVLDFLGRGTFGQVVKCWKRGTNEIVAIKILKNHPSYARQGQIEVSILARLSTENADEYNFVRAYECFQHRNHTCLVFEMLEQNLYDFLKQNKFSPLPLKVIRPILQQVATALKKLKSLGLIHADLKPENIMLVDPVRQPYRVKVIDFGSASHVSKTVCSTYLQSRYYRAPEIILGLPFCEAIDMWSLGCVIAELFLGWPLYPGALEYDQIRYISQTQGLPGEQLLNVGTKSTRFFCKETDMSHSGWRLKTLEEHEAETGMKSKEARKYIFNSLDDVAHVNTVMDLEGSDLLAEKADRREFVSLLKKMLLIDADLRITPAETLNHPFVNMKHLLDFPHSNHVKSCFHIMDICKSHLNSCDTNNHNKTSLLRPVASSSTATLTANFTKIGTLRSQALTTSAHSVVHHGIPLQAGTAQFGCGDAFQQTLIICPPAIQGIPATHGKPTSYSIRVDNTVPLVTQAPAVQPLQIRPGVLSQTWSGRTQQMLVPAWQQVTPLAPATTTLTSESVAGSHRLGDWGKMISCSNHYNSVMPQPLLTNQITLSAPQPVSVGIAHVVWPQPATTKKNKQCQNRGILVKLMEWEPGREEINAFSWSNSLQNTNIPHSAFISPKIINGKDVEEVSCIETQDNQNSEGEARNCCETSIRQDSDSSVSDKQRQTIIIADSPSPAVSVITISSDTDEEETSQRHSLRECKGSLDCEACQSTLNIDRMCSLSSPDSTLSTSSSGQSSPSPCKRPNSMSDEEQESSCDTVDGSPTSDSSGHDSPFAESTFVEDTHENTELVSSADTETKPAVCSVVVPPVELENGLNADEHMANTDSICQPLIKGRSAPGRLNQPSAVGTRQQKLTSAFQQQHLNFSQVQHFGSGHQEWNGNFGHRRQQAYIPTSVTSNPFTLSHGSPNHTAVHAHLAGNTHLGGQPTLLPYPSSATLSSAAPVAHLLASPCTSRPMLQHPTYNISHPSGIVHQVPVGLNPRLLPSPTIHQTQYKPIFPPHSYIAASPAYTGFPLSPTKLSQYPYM

CLK1, sequence (P49759 141-484): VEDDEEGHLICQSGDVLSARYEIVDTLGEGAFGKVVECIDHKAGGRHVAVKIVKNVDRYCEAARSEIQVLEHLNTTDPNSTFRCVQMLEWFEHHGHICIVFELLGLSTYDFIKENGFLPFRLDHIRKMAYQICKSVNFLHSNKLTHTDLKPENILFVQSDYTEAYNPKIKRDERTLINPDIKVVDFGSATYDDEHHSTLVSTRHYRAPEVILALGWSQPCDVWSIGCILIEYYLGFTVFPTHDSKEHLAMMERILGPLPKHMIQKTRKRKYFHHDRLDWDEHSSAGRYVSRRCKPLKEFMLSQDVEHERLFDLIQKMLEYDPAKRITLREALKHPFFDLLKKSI
HIPK1, sequence (Q86Z02 whole entry): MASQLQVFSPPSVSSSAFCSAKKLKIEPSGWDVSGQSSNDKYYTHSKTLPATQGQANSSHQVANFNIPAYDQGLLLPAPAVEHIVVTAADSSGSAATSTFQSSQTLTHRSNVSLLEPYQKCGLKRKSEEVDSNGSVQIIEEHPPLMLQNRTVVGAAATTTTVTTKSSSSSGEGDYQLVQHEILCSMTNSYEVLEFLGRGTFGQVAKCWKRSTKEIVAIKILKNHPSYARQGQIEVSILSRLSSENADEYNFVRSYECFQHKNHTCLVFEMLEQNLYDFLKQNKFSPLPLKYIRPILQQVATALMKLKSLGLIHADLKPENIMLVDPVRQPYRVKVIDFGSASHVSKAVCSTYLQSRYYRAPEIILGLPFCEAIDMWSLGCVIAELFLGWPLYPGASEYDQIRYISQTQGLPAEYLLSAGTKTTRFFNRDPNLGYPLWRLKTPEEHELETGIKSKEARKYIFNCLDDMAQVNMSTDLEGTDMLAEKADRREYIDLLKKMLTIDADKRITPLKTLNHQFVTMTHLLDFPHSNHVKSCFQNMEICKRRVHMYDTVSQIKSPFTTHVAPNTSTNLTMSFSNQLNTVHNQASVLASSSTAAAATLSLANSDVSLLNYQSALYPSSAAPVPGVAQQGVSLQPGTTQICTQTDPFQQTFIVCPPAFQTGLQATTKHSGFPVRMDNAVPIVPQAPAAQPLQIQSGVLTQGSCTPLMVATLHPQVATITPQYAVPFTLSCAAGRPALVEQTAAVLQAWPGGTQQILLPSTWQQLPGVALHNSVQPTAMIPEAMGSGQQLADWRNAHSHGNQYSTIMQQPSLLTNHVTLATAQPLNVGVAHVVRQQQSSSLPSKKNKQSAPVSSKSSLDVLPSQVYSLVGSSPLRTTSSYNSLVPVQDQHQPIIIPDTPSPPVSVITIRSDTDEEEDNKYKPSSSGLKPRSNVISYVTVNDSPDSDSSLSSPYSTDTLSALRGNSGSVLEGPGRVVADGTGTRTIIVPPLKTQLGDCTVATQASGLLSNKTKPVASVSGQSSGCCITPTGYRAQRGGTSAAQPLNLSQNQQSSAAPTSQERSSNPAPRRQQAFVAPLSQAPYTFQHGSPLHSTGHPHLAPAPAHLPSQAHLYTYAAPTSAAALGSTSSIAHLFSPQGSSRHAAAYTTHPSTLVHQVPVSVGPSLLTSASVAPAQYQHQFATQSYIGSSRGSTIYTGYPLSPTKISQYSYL
IRAK1, sequence (P51617 whole entry): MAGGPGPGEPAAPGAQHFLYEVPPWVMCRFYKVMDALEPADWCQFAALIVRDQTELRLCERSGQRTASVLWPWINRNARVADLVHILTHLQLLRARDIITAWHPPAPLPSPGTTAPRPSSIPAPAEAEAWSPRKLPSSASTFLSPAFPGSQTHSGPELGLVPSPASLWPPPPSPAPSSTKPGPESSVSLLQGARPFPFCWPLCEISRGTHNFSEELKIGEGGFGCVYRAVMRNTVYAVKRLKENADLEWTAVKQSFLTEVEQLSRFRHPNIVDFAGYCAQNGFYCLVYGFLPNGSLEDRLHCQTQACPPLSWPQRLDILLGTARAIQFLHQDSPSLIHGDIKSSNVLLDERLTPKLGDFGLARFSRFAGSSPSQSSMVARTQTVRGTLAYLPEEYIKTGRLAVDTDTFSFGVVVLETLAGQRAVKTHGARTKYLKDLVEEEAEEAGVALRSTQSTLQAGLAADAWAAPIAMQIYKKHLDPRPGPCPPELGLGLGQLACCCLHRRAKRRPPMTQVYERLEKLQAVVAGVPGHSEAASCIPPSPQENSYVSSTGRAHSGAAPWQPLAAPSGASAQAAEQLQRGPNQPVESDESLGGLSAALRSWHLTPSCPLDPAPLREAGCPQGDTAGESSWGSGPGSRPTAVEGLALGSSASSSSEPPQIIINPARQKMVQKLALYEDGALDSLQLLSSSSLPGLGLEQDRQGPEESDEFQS
PIM1, sequence (P11309 whole entry): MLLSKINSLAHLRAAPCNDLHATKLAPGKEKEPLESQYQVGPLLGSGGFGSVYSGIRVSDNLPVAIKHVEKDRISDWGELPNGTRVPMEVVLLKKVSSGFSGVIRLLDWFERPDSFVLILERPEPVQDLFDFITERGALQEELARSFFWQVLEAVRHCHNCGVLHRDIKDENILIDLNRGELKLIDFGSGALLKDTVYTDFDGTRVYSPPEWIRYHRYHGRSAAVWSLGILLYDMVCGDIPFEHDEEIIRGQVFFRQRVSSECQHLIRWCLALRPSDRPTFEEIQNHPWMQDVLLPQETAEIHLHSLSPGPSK
PIM2, sequence (Q9P1W9 whole entry): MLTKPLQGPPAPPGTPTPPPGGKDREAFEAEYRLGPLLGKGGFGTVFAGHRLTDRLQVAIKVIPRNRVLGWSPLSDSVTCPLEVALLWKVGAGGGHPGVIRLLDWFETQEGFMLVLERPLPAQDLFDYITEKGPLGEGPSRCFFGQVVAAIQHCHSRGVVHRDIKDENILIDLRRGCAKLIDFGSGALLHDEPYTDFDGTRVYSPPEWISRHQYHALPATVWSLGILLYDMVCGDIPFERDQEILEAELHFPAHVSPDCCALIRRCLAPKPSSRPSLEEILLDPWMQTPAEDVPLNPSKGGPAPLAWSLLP

Residual activity (% of control) DYRK2 (DYRK2): 63 % of control | Residual activity (% of control) HIPK2 (HIPK2 [3]): 91 % of control | Residual activity (% of control) DYRK1B (DYRK1B): 44 % of control | Residual activity (% of control) CLK1 (CLK1): 17 % of control
Structure (SMILES): COc1ccc2c(c1)[nH]c1c(Cl)nccc12 [AnnH24]
viability at 3 days, 1 µM (Cell viability XTT assay [1]; 1 μM): 97% | viability at 3 days, 3 µM (Cell viability XTT assay [1]; 3 μM): 96% | viability at 3 days, 10 µM (Cell viability XTT assay [1]; 10 μM): 72% | viability at 3 days, 1 µM (Cell viability XTT assay [2]; 1 μM): 75% | viability at 3 days, 3 µM (Cell viability XTT assay [2]; 3 μM): 66% | viability at 3 days, 10 µM (Cell viability XTT assay [2]; 10 μM): 45% | viability at 3 days, 1 µM (Cell viability XTT assay [4]; PC12, 1 μM): 95% | viability at 3 days, 3 µM (Cell viability XTT assay [4]; PC12, 3 μM): 90% | viability at 3 days, 10 µM (Cell viability XTT assay [4]; PC12, 10 μM): 81%

Residual activity (% of control) DYRK2 (DYRK2): 81 % of control | Residual activity (% of control) DYRK1A (DYRK1A [5]): 22 % of control | Residual activity (% of control) HIPK2 (HIPK2 [3]): 96 % of control | Residual activity (% of control) DYRK1B (DYRK1B): 43 % of control | Residual activity (% of control) CLK1 (CLK1): 44 % of control
Structure (SMILES): COc1ccc2c3ccnc(C)c3n(CCC#N)c2c1 [AnnH42]

Structure (SMILES): Nc1ncnc2c1c(I)cn2[C@@H]1O[C@H](CO)[C@@H](O)[C@H]1O [IoT, 5-iodotubercidin, reference compound]
Viability of treated cells relative to untreated control (HeLa cells; 1 μM): 67% | Viability of treated cells relative to untreated control (HeLa cells; 3 μM): 16% | Viability of treated cells relative to untreated control (HeLa cells; 10 μM): 18% | Viability of treated cells relative to untreated control (SH-SY5Y cells; 1 μM): 13% | Viability of treated cells relative to untreated control (SH-SY5Y cells; 3 μM): 10% | Viability of treated cells relative to untreated control (SH-SY5Y cells; 10 μM): 15% | Residual activity (% of control) DYRK2 (DYRK2): 10 % of control | Residual activity (% of control) DYRK1A (DYRK1A [5]): 13 % of control | Residual activity (% of control) HIPK2 (HIPK2 [3]): 20 % of control | Residual activity (% of control) DYRK1B (DYRK1B): 4 % of control | Residual activity (% of control) CLK1 (CLK1): 4 % of control | Viability of treated cells relative to untreated control (PC12 cells; PC12, 1 μM): 62% | Viability of treated cells relative to untreated control (PC12 cells; PC12, 3 μM): 17% | Viability of treated cells relative to untreated control (PC12 cells; PC12, 10 μM): 5%

Residual activity (% of control) DYRK2 (DYRK2): 100 % of control | Residual activity (% of control) DYRK1A (DYRK1A [5]): 17 % of control | Residual activity (% of control) HIPK2 (HIPK2 [3]): 74 % of control | Residual activity (% of control) DYRK1B (DYRK1B): 59 % of control | Residual activity (% of control) CLK1 (CLK1): 34 % of control
Structure (SMILES): C#CCn1c2c(C)nccc2c2ccc(Cl)c(Cl)c21 [AnnH67]

Structure (SMILES): CN1C(=O)/C(=C/c2ccc3c(c2)OCO3)N=C1N [Leucett-amine B, Leucettamine B]
Residual activity (% of control) (PIM2): 82 % of control | Residual activity (% of control) (HIPK2 [6]): 60 % of control | Residual activity (% of control) (PIM1): 73 % of control | Residual activity (% of control) (HIPK4): 91 % of control | Residual activity (% of control) (IRAK1): 100 % of control | Residual activity (% of control) (DYRK1A [7]): 2 % of control | Residual activity (% of control) (PIM3): 71 % of control | Residual activity (% of control) (HIPK1): 34 % of control | Residual activity (% of control) (HIPK3): 45 % of control
